Results from the Deep4Chem optical property database.

Assay: photoluminescence quantum yield (fraction); solvent given as SMILES
[1] = in O=P(c1ccccc1)(c1ccccc1)c1ccccc1Oc1ccccc1P(=O)(c1ccccc1)c1ccccc1

CCCCC(CC)Cn1c2cc(C#N)ccc2c2ccc(C#Cc3ccc4ccc5cccc6ccc3c4c56)cc21 (stereo unspecified)
photoluminescence quantum yield (in ClCCl): 0.59

COC(=O)CC1(C(=O)OC)Oc2c(c(C(C)=O)c3c(c2C(C)=O)OCO3)O1
photoluminescence quantum yield (in CC#N): 0.62

Cc1ccc(/C=C/c2ccccc2-[n+]2noc([O-])c2C)cc1
photoluminescence quantum yield (in C1CCCCC1): 0.0019 | photoluminescence quantum yield (in CC#N): 0.0019

COCc1ncc(-c2c3ccccc3c(-c3cnc(COC)nc3)c3ccccc23)cn1
photoluminescence quantum yield (in CCO): 0.89 | photoluminescence quantum yield (in ClCCl): 0.83

CC(C)(C)c1ccc2c(c1)c1cc(C(C)(C)C)ccc1n2-c1ccccc1-c1nc(-c2ccccc2P(=O)(c2ccccc2)c2ccccc2)nc(-c2ccccc2P(=O)(c2ccccc2)c2ccccc2)n1
photoluminescence quantum yield [1]: 0.38

O=c1oc2cccc3c4cccc5ccc6c7ccccc7c1c(c23)c6c54
photoluminescence quantum yield (in C1CCOC1): 0.287

C[Si](C)(C)C#Cc1cc2ccc3cc(C#C[Si](C)(C)C)cc4ccc(c1)c2c34
photoluminescence quantum yield (in Cc1ccccc1): 0.19

F[B-]1(F)n2c(c3ccccc3c2-c2ccccc2)C=C2c3ccccc3C(c3ccccc3)=[N+]21
photoluminescence quantum yield (in C1CCOC1): 0.57 | photoluminescence quantum yield (in ClCCl): 0.88

COc1ccc(-n2nc(C#N)c(NC3CCCCC3)n2)cc1
photoluminescence quantum yield (in CC#N): 0.956

C#CCOc1ccc(/C=C/C2=[N+]3C(=C(c4ccc(N(C)C)cc4)c4c(C)cc(C)n4[B-]3(F)F)C(C)=C2)cc1
photoluminescence quantum yield (in CO): 0.66

Cc1ccc(-c2nc(-c3ccc(O)cc3)[nH]c2-c2ccc(C)cc2)cc1
photoluminescence quantum yield (in CO): 0.2

CCn1c2ccccc2oc2c(C#N)c3oc4ccccc4oc3c(C#N)c21
photoluminescence quantum yield (in ClC(Cl)Cl): 0.34

CC(C)(C)c1ccc2oc3nc4oc5ccc(-n6c7ccccc7c7cc(-n8c9ccccc9c9ccccc98)ccc76)cc5c4cc3c2c1
photoluminescence quantum yield (in ClC(Cl)Cl): 0.15

Cc1cc2ccccc2c2c1c1ccccc1n2-c1ncccn1
photoluminescence quantum yield (in ClCCl): 0

c1ccc(-c2nc3ccccc3nc2-c2cc(-n3c4ccccc4c4ccccc43)cc(-n3c4ccccc4c4ccccc43)c2)cc1
photoluminescence quantum yield (in Cc1ccccc1): 0.19

CCOC(CN1C(=O)C2=C(c3cc4cc(C(C)(C)C)cc(C(C)(C)C)c4o3)N(CC(OCC)OCC)C(=O)C2=C1c1cc2cc(C(C)(C)C)cc(C(C)(C)C)c2o1)OCC
photoluminescence quantum yield (in ClC(Cl)Cl): 0.75

CN(C)c1ccc(-c2ccc(-c3cc(-c4ccccc4)c(-c4ccccc4)c(-c4ccccc4)c3-c3ccccc3)s2)cc1
photoluminescence quantum yield (in ClC(Cl)Cl): 0.35

Cc1cc(C)n2c1C=[N+]1[N+](=C3C=NC=CN3[B-]1(F)F)[B-]2(F)F
photoluminescence quantum yield (in ClCCl): 0.57

CCOc1ccc2c(-c3nc(-c4cccc(C)c4)no3)cc(=O)oc2c1
photoluminescence quantum yield (in CCO): 0.68 | photoluminescence quantum yield (in ClC(Cl)Cl): 0.23

c1ccc(-[c+]2c3ccccc3sc3ccccc32)cc1
photoluminescence quantum yield (in CC#N): 0.02

CCOC(=O)C1=C(C(=O)OCC)C2(c3ccccc3-c3c(Br)cc(Br)cc32)C2(/C=C/c3ccc(Cl)cc3)c3cc(OC)c(OC)cc3CCN12 (stereo unspecified)
photoluminescence quantum yield (in ClCCl): 0.00075

Nc1ccc2cc3ccccc3cc2c1
photoluminescence quantum yield (in C1CCCCC1): 0.86

c1ccc2cc3c4c(ccc3cc2c1)-c1cccc2cccc-4c12
photoluminescence quantum yield (in CCCCCCC): 0.023

CN(C)c1ccc(/C=C/C=C/C2=NC3C(=O)NC(N)=NC3N2[C@H]2C[C@H](O)[C@@H](CO)O2)cc1 (stereo partly specified)
photoluminescence quantum yield (in C1COCCO1): 0.7 | photoluminescence quantum yield (in CC#N): 0.75 | photoluminescence quantum yield (in CO): 0.58

Clc1nc(Cl)nc(Nc2cc3ccc4cccc5ccc(c2)c3c45)n1
photoluminescence quantum yield (in CC#N): 0 | photoluminescence quantum yield (in CCCCOCCCC): 0.06 | photoluminescence quantum yield (in CO): 0

c1ccc2cc3cc4c(cc3cc2c1)-c1cccc2cccc-4c12
photoluminescence quantum yield (in CCCCCCC): 0.58

COc1ccc(-c2oc3cccc4c5c(-c6ccc(OC)c(OC)c6)/c(=N/S(=O)(=O)C(F)(F)F)oc6cccc(c2c34)c65)cc1OC
photoluminescence quantum yield (in ClC(Cl)Cl): 0.1

CCN(CC)c1ccc2cc3ccc(=[N+](CC)CC)cc-3oc2c1
photoluminescence quantum yield (in CC#N): 0.85 | photoluminescence quantum yield (in CCO): 0.95 | photoluminescence quantum yield (in CN(C)C=O): 0.74 | photoluminescence quantum yield (in O): 0.94

F[Si](c1c2ccccc2cc2ccccc12)(c1c2ccccc2cc2ccccc12)c1c2ccccc2cc2ccccc12
photoluminescence quantum yield (in C1CCOC1): 0.033 | photoluminescence quantum yield (in ClC(Cl)Cl): 0.036

O=C(O)C1=C(C(=O)O)C2=C[C@H]3c4ccccc4[C@]2(S1)c1ccccc13
photoluminescence quantum yield (in ClCCl): 0.72

FC(F)(F)C(F)(F)C(F)(F)C(F)(F)C(F)(F)C(F)(F)CCOc1nnc(Cl)nn1
photoluminescence quantum yield (in ClCCl): 0.4 | photoluminescence quantum yield (in OCC(F)(F)F): 0.26

c1ccc(-c2cc(-c3ccc(N4c5ccccc5C5(c6ccccc64)c4ccccc4N(c4ccc(-c6cc(-c7ccccc7)nc(-c7ccccc7)n6)cc4)c4ccccc45)cc3)nc(-c3ccccc3)n2)cc1
photoluminescence quantum yield [1]: 0.73

COc1ccc2c(c1)N(c1ccccc1-c1ccccc1)c1cc3c(cc1=N2)Oc1c(cc(C(C)(C)C)cc1C(C)(C)C)N=3
photoluminescence quantum yield (in CCCCCC): 0.34

CCCCCCCCC1(CCCCCCCC)c2cc(-c3ccccc3)ccc2-c2ccc(-c3ccccc3)cc21
photoluminescence quantum yield (in ClC(Cl)Cl): 0.85

Cc1cc(C)c([B-]2(c3c(C)cc(C)cc3C)[O+]=P(c3ccccc3)(c3ccccc3)c3cc(-c4ccc(C(C)(C)C)cc4)sc3-c3sc(-c4ccc(C(C)(C)C)cc4)cc32)c(C)c1
photoluminescence quantum yield (in C1CCOC1): 0.16

COc1ccc(C#Cc2ccc(C#Cc3ccc(P(=O)(c4ccc(C#Cc5ccc(C#Cc6ccc(OC)cc6)cc5)cc4)c4ccc(C#Cc5ccc(C#Cc6ccc(OC)cc6)cc5)cc4)cc3)cc2)cc1
photoluminescence quantum yield (in C1CCCCC1): 0.78 | photoluminescence quantum yield (in C1COCCO1): 0.89 | photoluminescence quantum yield (in CC#N): 0.79 | photoluminescence quantum yield (in CCO): 0.86 | photoluminescence quantum yield (in CS(C)=O): 0.71 | photoluminescence quantum yield (in ClC(Cl)Cl): 0.77 | photoluminescence quantum yield (in ClCCl): 0.73

COC(=O)c1cc(=O)n(C)c2cc(-c3ccc(Oc4ccccc4)cc3)sc12
photoluminescence quantum yield (in CC#N): 0.63 | photoluminescence quantum yield (in ClCCl): 0.83

COc1ccc(-c2csc(/C(C#N)=C/c3ccc([N+](=O)[O-])cc3)n2)cc1
photoluminescence quantum yield (in CC#N): 0

COC(=O)/C(C#N)=c1\s/c(=c2/s/c(=C(/C#N)C(=O)OC)c3cc(-c4ccc(C(F)(F)F)cc4)sc23)c2sc(-c3ccc(C(F)(F)F)cc3)cc12
photoluminescence quantum yield (in Cc1ccccc1): 0.212

F[Si-](F)(c1ccccc1)(c1ccccc1)c1c2ccccc2cc2ccccc12
photoluminescence quantum yield (in C1CCOC1): 0.76

COC(=O)[C@@]12N=N[C@@](C(=O)OC)(C3[C@H]1C3(C)C)[C@H]1[C@@H]2C1(C)C (stereo partly specified)
photoluminescence quantum yield (in CC#N): 0.041

Cc1cc(C)c(C2=C3C=C(/C=C/C(=O)OCc4ccccc4)C=[N+]3[B-](F)(F)n3cc(/C=C/C(=O)OCc4ccccc4)cc32)c(C)c1
photoluminescence quantum yield (in ClCCl): 0.35

C#CCNC1=C2C=C(c3cc4n(c3)[B-](F)(F)[N+]3=CC=CC3=C4c3c(C)cc(C)cc3C)C(C)=[N+]2[B-](F)(F)n2c(C)ccc21
photoluminescence quantum yield (in C1CCCCC1): 0.42 | photoluminescence quantum yield (in CCOC(C)=O): 0.06

CN1/C(=C\C=C\C2=C3C=CC(c4ccccc4)=[N+]3[B-](F)(F)n3c2ccc3-c2ccccc2)C(C)(C)c2ccccc21
photoluminescence quantum yield (in CC#N): 0.1

COc1ccc(-c2ccc3c(c2)nnn3C[C@H](N)C(=O)O)cc1
photoluminescence quantum yield (in CO): 0.17

Cc1nc2cc(/C=C/c3ccc(N(C)C)cc3)ccc2nc1-c1ccccc1
photoluminescence quantum yield (in C1COCCO1): 0.29 | photoluminescence quantum yield (in CC#N): 0.01 | photoluminescence quantum yield (in ClCCl): 0.09

CN1C(=O)c2cccc3c(-n4c5ccccc5c5ccccc54)ccc(c23)C1=O
photoluminescence quantum yield (in C1CCOC1): 0.031 | photoluminescence quantum yield (in CCCCCC): 0.895 | photoluminescence quantum yield (in ClC(Cl)Cl): 0.204 | photoluminescence quantum yield (in ClCCl): 0.029

O=C1CCCC2=C1C(c1cccc(Cl)c1)c1c(c3ccccc3oc1=O)N2 (stereo unspecified)
photoluminescence quantum yield (in CS(C)=O): 0.6

CCCCCCc1ccc2c3c(ccc2c1)O[B-](c1ccccc1)(c1ccccc1)[N+](c1ccc([N+]2=Cc4c(ccc5cc(CCCCCC)ccc45)O[B-]2(c2ccccc2)c2ccccc2)cc1)=C3
photoluminescence quantum yield (in C1CCOC1): 0.32 | photoluminescence quantum yield (in CC#N): 0.27 | photoluminescence quantum yield (in Cc1ccccc1): 0.35 | photoluminescence quantum yield (in ClCCl): 0.47

C[Si]1(C)O[Si](C)(C)c2cc3nc4ccc([N+](=O)[O-])cc4c(-c4ccccc4)c3cc2[Si](C)(C)O1
photoluminescence quantum yield (in ClCCl): 0.44

COc1c2ccccc2c(OC)c2c(C#CC(C)(C)C)c3cc4ccccc4cc3c(C#CC(C)(C)C)c12
photoluminescence quantum yield (in C1CCOC1): 0.11 | photoluminescence quantum yield (in Cc1ccccc1): 0.1 | photoluminescence quantum yield (in ClCCl): 0.09

COc1ccc(-c2nc(-c3cccc(OC)c3)[nH]c2-c2ccc(OC)cc2)cc1
photoluminescence quantum yield (in CO): 0.25

CN(C)c1ccc(C2=Nc3sc4cc(F)ccc4[n+]3[B-](F)(F)O2)cc1
photoluminescence quantum yield (in C1CCOC1): 0.72 | photoluminescence quantum yield (in CC#N): 0.13 | photoluminescence quantum yield (in CC(C)=O): 0.23 | photoluminescence quantum yield (in Cc1ccccc1): 0.85 | photoluminescence quantum yield (in ClCCl): 0.74

N#C/C(=C\c1ccc(C#N)cc1)c1nc(-c2ccc(Cl)cc2)c(-c2ccccc2)s1
photoluminescence quantum yield (in CC#N): 0.114

CCCCCCn1c2cc(/C=C/c3ccccc3)ccc2c2ccc(/C=C/c3ccccc3)cc21
photoluminescence quantum yield (in ClC(Cl)Cl): 0.91

CCCCC(CC)COc1cc(OCC(CC)CCCC)c2c#cc3ccc4c(c3)c3cc(c#cc5cc(c#cc6ccc7c(c6)c6cc(c#cc1c2)ccc6n7CC(CC)CCCC)c(C(CCCC)OCCC)cc5C(CCCC)OCCC)ccc3n4CC(CC)CCCC (stereo unspecified)
photoluminescence quantum yield (in ClCCl): 0.32

CCCCCCn1c2cc(/C=C(\C#N)c3ccccc3)ccc2c2ccc(/C=C(\C#N)c3ccccc3)cc21
photoluminescence quantum yield (in ClC(Cl)Cl): 0.026

CCCCN1C(=O)c2cc(Br)c3c4c(Br)c(Br)c5c6c(cc(Br)c(c7c(Br)c(Br)c(c2c37)C1=O)c64)C(=O)N(CCCC)C5=O
photoluminescence quantum yield (in ClC(Cl)Cl): 0.11

COc1cccc(OC)c1C1=C2C(C)=CC(C)=[N+]2[B-](F)(F)n2c(C)cc(C)c21
photoluminescence quantum yield (in C1CCOC1): 0.64 | photoluminescence quantum yield (in CC#N): 0.54 | photoluminescence quantum yield (in CC(=O)C(C)(C)C): 0.64 | photoluminescence quantum yield (in CC(C)=O): 0.72 | photoluminescence quantum yield (in CCCCCC): 0.71 | photoluminescence quantum yield (in CCOC(C)=O): 0.47 | photoluminescence quantum yield (in CO): 0.58

CCn1c(=O)nc2n(C)c3cc(C)ccc3nc-2c1=O
photoluminescence quantum yield (in C1COCCO1): 0.14 | photoluminescence quantum yield (in CC#N): 0.14 | photoluminescence quantum yield (in CO): 0.11 | photoluminescence quantum yield (in ClCCCl): 0.12

CC1=[N+]2C(=C(c3ccc(C(=O)c4ccccc4)cc3)c3ccc(C)n3[B-]2(F)F)C=C1c1cc2n(c1)[B-](F)(F)[N+]1=CC=CC1=C2c1c(C)cc(C)cc1C
photoluminescence quantum yield (in C1CCCCC1): 0.47 | photoluminescence quantum yield (in CCOC(C)=O): 0.13
